From US9777309B2, “High throughput assay for monitoring AMP production and aminoacyl-tRNA synthetase activity” (Board of Supervisors of Louisiana State University and …, priority 2014, dated 2017)

How the values were obtained:
[1] = molecular target: G. stearothermophilus tyrosyl-tRNA synthetase (Geobacillus stearothermophilus, UniProt P00952); experiment: Tyrosyl-tRNA synthetase assay with tRNA recycling (AMP release coupled to NADH); conditions: for kcat: aminoacylation of tRNA^Tyr by the named tyrosine isomer, 10 mM MgATP
Chain of G. stearothermophilus tyrosyl-tRNA synthetase (P00952 whole entry): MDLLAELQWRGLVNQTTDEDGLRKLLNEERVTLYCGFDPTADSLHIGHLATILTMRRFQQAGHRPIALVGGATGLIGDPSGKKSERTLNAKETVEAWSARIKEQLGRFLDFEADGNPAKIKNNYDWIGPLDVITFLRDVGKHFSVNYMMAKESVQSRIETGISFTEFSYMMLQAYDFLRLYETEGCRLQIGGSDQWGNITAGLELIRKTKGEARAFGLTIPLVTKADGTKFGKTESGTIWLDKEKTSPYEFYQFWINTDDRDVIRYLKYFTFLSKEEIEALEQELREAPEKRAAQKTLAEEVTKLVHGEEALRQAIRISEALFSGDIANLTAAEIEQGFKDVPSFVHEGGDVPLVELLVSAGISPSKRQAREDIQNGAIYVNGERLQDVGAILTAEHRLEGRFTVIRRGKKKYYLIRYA
Procedure: The pH of all stock solutions was adjusted to 7.0 prior to use. All kinetic assays were performed in 96 well microtiter plates at 25° C. using either 100 or 200 μl of assay mix per well. Under these conditions, the path lengths are 0.28 and 0.56 cm, respectively. The reaction rate for formation of the L-Tyr-tRNA^TYr product was determined by monitoring the increase in absorbance at 340 nm associated with the conversion of NAD^+ to NADH using a BioTek Synergy 4 plate reader (ε340=6220 M^−1 cm^−1).
Initial rates for each substrate concentration were determined from a linear fit of the data (A340 vs. time). Km and Vmax values were determined by fitting a plot of the initial rate vs. substrate concentration to the Michaelis-Menten equation, the same equations (1) and (2) above:
[formula] where vo is the initial rate of the reaction and [S] is the substrate concentration. kcat values were calculated from the equation: Vmax=kcat[E]

IMP dehydrogenase = IMP dehydrogenase (Saccharomyces cerevisiae, UniProt P50095); format: biochemical
Chain of IMP dehydrogenase (P50095 whole entry): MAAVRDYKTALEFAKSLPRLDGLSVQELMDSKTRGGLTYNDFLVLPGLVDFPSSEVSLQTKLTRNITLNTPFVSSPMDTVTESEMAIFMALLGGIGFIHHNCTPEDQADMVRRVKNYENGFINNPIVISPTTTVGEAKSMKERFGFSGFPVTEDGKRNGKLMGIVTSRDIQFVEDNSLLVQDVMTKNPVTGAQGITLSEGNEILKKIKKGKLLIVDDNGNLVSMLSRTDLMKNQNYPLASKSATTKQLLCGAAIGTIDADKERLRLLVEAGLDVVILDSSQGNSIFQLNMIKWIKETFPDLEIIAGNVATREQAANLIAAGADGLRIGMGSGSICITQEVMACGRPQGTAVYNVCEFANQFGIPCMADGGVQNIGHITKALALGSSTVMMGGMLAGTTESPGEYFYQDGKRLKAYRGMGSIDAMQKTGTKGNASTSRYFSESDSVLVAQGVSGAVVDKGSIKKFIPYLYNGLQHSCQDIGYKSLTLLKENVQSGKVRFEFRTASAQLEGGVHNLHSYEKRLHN

N[C@H](Cc1ccc(O)cc1)C(=O)O [D-Tyrosine, D-tyrosine]
kcat [1]: 0.32 (±0.08) s^−1 | Km^D-Tyr lower than Kd^D-Tyr determined by single turnover kinetics ([1]; single turnover assay was in the absence of tRNA^Tyr): 8 fold

N[C@@H](Cc1ccc(O)cc1)C(=O)O [L-Tyrosine, L-tyrosine]
kcat [1]: 2.8 (±0.6) s^−1

NC(=O)c1ccc[n+]([C@@H]2O[C@H](COP(=O)([O-])OP(=O)(O)OC[C@H]3O[C@@H](n4cnc5c(N)ncnc54)[C@H](O)[C@@H]3O)[C@@H](O)[C@H]2O)c1 [NAD^+]
Km (IMP dehydrogenase; 50 mM TRIS pH 7.2, 25° C., other substrate at 5 mM, standard error in parenthesis): 800 µM | affinity higher than for the C. albicans IMP dehydrogenase homolog (IMP dehydrogenase; S. cerevisiae vs Candida albicans enzyme): 4 fold
